Active and inactive are the calls of the source. The calls are words filed in the database; no cut-off is given here.
Columns and labels:
Histone deacetylase 1 = Histone deacetylase 1 (Homo sapiens, UniProt Q13547); assay: Inhibition of human recombinant HDAC1 using Ac-Lys(Ac)-7-amino-4-methylcoumarin as substrate after 30 mins by trypsin-coupled fluorogenic assay
Histone deacetylase 2 = Histone deacetylase 2 (Homo sapiens, UniProt Q92769); assay: Inhibition of human recombinant HDAC2 using Ac-Lys(Ac)-7-amino-4-methylcoumarin as substrate after 30 mins by trypsin-coupled fluorogenic assay
HeLa = assay: Cytotoxicity against human HeLa cells after 72 hrs by XTT assay; assay type: functional
[1] = target: Histone deacetylase 3/Nuclear receptor corepressor 2 (HDAC3/NCoR2) (Homo sapiens, UniProt O15379); assay: Inhibition of human recombinant HDAC3/NCoR2 using Ac-Lys(Ac)-7-amino-4-methylcoumarin as substrate after 30 mins by trypsin-coupled fluorogenic assay; assay type: protein-complex assay
MCF7 = assay: Cytotoxicity against human MCF7 cells after 72 hrs by XTT assay; assay type: functional; settings: MCF7, 72 h
Histone deacetylase = assay: Inhibition of HDAC in human HeLa cell extracts by fluorimetric assay; assay type: protein assay
[2] = target: T1, Protein deacetylase HDAC6 (Homo sapiens, UniProt Q9UBN7); assay: Inhibition of human recombinant HDAC6 using Ac-Lys(Ac)-7-amino-4-methylcoumarin as substrate after 30 mins by trypsin-coupled fluorogenic assay
T1 sequence (Q9UBN7 whole entry): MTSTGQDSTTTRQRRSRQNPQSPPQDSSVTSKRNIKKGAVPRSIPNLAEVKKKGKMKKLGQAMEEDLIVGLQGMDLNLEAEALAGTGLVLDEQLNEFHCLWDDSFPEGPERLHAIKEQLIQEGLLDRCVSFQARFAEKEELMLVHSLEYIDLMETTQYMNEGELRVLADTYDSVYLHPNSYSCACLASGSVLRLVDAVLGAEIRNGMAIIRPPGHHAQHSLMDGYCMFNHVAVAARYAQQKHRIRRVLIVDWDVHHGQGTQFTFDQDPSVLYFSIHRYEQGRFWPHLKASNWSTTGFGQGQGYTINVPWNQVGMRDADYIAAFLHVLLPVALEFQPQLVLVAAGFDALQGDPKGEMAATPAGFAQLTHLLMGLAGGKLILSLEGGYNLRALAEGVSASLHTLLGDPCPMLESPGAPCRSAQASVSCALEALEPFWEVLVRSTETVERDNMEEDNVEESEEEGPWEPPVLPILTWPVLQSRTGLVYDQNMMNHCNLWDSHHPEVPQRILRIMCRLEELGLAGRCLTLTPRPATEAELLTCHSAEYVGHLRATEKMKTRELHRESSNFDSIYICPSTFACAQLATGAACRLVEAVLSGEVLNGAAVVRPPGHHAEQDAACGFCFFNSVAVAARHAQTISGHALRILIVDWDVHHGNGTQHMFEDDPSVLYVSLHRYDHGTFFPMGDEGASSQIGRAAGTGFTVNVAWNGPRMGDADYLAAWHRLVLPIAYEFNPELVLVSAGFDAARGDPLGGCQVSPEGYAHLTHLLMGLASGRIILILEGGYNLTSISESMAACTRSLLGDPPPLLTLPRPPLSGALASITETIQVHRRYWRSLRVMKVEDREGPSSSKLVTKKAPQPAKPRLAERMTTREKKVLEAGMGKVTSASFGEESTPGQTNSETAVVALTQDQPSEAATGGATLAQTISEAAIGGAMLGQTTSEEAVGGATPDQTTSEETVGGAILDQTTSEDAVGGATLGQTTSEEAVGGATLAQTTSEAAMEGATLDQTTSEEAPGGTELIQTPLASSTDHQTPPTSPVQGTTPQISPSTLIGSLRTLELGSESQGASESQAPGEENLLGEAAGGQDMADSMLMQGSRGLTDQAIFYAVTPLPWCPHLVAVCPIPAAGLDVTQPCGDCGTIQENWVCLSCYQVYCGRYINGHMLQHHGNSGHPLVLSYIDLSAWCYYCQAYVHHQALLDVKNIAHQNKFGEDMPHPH

HCT-116 = assay: Cytotoxicity against human HCT116 cells after 72 hrs by XTT assay; assay type: functional; settings: HCT-116, 72 h
K562 = assay: Cytotoxicity against human K562 cells after 72 hrs by XTT assay; assay type: functional; settings: K562, 72 h
[3] = Cytotoxicity against human KYO1 cells after 72 hrs by XTT assay; assay type: functional; settings: KYO1, 72 h
Histone deacetylase 8 = target: T2, Histone deacetylase 8 (Homo sapiens, UniProt Q9BY41); assay: Inhibition of human recombinant HDAC8 using Arg-His-Lys(Ac)-Lys(Ac)-AMC as substrate after 30 mins by trypsin-coupled fluorogenic assay
T2 sequence (Q9BY41 whole entry): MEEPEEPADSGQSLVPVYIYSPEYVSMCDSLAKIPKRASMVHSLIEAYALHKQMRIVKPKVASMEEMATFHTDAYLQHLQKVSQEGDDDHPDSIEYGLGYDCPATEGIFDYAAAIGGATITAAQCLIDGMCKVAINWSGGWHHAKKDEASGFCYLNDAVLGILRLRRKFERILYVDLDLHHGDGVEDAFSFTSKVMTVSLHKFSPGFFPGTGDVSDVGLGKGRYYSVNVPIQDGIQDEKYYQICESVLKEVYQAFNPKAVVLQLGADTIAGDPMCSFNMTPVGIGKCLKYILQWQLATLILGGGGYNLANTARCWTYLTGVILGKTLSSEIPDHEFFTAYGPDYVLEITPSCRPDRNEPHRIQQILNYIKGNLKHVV

[4] = target: Histone deacetylase (Homo sapiens) (UniProt Q13547+O15379+Q9UBN7+Q92769+Q9UQL6+Q8WUI4+Q9BY41+Q96DB2+P56524+Q9UKV0+Q969S8); settings: Jurkat, 2 to 20 uM
Description: Inhibition of HDAC in human Jurkat cells assessed as increase of acetylated-histone H3 level at 2 to 20 uM after 24 hrs by Western blot analysis

[5] = target: T3, Protein deacetylase HDAC6 (Homo sapiens) (UniProt Q9UBN7); settings: Jurkat, 2 to 20 uM
T3 sequence (whole entry): T1 sequence (Q9UBN7 whole entry)
Description: Inhibition of HDAC6 in human Jurkat cells assessed as increase of acetylated alpha-tubulin level at 2 to 20 uM after 24 hrs by Western blot analysis

Chain of Histone deacetylase 3/Nuclear receptor corepressor 2 (HDAC3/NCoR2) (O15379 whole entry): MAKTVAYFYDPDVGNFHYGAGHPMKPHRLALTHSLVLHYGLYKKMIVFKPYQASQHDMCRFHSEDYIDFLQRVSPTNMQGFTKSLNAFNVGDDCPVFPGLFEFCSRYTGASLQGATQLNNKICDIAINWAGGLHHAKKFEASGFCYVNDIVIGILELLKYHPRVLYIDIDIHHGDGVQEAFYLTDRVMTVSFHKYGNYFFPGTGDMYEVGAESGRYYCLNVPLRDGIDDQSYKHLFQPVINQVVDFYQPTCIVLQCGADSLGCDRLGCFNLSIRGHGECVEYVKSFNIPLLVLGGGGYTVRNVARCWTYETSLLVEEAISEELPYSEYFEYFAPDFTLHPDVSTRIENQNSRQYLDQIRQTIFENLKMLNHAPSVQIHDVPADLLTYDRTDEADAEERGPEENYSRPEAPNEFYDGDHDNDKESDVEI
Chain of Histone deacetylase 3/Nuclear receptor corepressor 2 (HDAC3/NCoR2) (Q9Y618 whole entry, further chain): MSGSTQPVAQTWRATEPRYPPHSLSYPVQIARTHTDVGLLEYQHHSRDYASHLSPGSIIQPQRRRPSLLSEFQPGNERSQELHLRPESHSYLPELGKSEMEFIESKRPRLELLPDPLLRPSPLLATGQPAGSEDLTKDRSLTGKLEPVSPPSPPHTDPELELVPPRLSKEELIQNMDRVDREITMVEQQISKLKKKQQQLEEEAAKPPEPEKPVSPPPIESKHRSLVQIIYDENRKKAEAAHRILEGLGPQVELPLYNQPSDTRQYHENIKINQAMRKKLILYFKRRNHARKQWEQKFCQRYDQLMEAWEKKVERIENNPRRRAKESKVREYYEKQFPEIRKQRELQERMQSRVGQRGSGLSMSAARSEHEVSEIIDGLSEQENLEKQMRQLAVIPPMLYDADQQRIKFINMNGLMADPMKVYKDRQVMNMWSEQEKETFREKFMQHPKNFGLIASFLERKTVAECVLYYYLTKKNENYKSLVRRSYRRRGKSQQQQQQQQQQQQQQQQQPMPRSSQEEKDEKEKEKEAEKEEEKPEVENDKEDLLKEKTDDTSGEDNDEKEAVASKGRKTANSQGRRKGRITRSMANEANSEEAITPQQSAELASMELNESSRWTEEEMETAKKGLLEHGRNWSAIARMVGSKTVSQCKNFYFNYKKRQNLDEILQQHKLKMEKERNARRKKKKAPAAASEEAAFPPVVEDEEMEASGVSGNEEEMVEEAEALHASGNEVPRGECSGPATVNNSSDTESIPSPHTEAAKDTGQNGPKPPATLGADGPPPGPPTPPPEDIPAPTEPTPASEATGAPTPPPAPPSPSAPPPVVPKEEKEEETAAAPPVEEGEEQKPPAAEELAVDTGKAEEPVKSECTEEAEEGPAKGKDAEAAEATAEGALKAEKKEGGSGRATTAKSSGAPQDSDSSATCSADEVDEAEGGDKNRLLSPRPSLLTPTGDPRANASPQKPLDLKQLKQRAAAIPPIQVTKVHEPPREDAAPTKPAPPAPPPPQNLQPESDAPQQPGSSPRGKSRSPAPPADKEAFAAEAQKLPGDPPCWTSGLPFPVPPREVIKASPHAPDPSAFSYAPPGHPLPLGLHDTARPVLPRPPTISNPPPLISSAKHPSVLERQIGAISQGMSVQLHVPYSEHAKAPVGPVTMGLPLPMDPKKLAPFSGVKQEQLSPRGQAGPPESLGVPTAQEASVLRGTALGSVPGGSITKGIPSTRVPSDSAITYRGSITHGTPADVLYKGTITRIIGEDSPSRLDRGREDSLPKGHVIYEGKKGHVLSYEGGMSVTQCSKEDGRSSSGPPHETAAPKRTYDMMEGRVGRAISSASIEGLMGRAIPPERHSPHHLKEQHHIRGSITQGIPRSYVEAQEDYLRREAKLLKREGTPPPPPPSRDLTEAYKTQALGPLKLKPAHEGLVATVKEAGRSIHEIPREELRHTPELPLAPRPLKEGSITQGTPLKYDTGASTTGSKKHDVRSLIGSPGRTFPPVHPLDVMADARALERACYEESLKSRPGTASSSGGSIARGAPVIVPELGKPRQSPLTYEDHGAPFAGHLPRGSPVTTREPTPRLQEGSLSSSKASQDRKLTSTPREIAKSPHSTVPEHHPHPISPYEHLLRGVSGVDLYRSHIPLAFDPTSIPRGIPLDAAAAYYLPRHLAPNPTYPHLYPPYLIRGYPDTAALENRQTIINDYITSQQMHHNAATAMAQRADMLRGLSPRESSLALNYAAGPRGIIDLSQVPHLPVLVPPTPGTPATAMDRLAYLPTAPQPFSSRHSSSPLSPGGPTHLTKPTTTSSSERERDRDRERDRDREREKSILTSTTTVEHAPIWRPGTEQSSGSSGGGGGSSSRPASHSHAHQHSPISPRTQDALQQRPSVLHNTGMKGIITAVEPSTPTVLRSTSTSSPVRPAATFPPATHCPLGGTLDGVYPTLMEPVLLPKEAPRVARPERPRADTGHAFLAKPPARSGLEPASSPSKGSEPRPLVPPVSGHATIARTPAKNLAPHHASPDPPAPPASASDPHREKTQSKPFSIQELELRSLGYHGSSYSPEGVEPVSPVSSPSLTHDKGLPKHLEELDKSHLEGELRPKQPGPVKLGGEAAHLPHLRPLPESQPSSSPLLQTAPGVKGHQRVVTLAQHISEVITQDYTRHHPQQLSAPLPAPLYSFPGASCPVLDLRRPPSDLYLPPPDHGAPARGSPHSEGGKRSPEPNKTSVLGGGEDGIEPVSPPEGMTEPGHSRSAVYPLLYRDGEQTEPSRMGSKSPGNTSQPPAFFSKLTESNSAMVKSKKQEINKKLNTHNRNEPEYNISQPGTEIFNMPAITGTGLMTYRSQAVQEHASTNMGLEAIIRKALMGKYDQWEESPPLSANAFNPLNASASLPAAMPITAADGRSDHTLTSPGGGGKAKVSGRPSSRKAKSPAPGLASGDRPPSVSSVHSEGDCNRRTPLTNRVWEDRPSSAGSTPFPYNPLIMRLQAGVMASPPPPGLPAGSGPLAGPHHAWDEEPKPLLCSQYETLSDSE
Chain of Histone deacetylase 1 (Q13547 whole entry): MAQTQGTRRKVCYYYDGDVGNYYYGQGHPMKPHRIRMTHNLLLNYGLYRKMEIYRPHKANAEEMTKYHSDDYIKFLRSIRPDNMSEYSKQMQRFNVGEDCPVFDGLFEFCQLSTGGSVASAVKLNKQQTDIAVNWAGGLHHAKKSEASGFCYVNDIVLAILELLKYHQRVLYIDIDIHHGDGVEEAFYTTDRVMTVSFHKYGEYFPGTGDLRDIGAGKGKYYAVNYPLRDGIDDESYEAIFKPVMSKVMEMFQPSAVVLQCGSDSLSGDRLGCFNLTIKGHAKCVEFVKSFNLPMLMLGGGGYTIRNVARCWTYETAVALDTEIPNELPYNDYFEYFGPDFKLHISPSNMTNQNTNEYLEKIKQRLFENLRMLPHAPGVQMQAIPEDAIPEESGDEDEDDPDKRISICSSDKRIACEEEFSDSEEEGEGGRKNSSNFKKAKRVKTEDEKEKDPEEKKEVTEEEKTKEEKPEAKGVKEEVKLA
Chain of Histone deacetylase 2 (Q92769 whole entry): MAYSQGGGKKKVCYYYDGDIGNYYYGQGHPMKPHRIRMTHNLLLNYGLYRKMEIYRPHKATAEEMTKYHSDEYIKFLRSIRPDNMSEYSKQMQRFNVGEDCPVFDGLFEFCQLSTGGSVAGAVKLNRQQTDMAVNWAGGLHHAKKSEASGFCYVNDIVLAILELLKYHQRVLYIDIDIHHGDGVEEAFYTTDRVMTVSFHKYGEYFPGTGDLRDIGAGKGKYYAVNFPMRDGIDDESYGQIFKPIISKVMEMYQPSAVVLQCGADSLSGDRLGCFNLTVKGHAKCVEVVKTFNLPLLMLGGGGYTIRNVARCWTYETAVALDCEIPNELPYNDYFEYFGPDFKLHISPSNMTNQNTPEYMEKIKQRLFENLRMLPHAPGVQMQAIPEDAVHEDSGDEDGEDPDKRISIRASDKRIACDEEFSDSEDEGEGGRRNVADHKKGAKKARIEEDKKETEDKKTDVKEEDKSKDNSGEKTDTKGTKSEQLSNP

SMILES	IC50 (Histone deacetylase 2) [µM]	IC50 (Histone deacetylase) [µM]	IC50 [2] [µM]	GI50 (HeLa) [µM]	GI50 (MCF7) [µM]	GI50 (HCT-116) [µM]	GI50 (K562) [µM]	GI50 [3] [µM]	other results
CCC(=O)CCCCC[C@@H]1NC(=O)[C@H](CCCNC(=N)N)NC(=O)CCN(CC=C(C)C)C(=O)CN(CCc2c[nH]c3ccccc23)C1=O	1.2	0.25	> 10	> 50	> 50	> 50			IC50 (Histone deacetylase 1): 0.7 µM; IC50 [1]: 0.27 µM
CCC(=O)CCCCC[C@@H]1NC(=O)[C@H](C)N(C)C(=O)C[C@H](CC(C)C)NC(=O)[C@H](Cc2c[nH]c3ccccc23)NC1=O	0.07		> 10	4	18		7	7.5	IC50 (Histone deacetylase 8): 2.2 µM
CCC(=O)CCCCC[C@@H]1NC(=O)[C@H]2CCCCN2C(=O)[C@H]([C@@H](C)CC)NC(=O)[C@H](Cc2cn(OC)c3ccccc23)NC1=O [APICIDIN]				2	5	1	1.5	2.7	
CCC(=O)CCCCC[C@@H]1NC(=O)[C@H](C)N(C)C(=O)CCN(CC(C)C)C(=O)CN(Cc2ccc(C)cc2)C1=O		> 100							
CCC(=O)CCCCC[C@@H]1NC(=O)[C@H](C)N(C)C(=O)CCN(CC(C)C)C(=O)CN(CC2CCCCC2)C1=O		> 100							
CCC(=O)CCCCC[C@@H]1NC(=O)[C@H](CCCNC(=N)N)NC(=O)CCN(CC(C)C)C(=O)CN(CCc2c[nH]c3ccccc23)C1=O	0.3	0.06	> 10	> 50	> 50	> 50	> 50	> 50	IC50 (Histone deacetylase 1): 0.18 µM; inhibition [4]: Active; IC50 [1]: 0.1 µM; IC50 (Histone deacetylase 8): 0.75 µM; inhibition [5]: inactive

Further lines, with some results ahead:

IC50 (Histone deacetylase 2) [µM]	IC50 (Histone deacetylase) [µM]	IC50 [2] [µM]	SMILES	GI50 (HeLa) [µM]	GI50 (MCF7) [µM]	GI50 (HCT-116) [µM]	GI50 (K562) [µM]	GI50 [3] [µM]	other results
	> 10		CCC(=O)CCCCC[C@@H]1NC(=O)[C@H](C)N(C)C(=O)C[C@H](CC(C)C)NC(=O)CN(CCc2c[nH]c3ccccc23)C1=O						
	> 10		CCC(=O)CCCCCN1CC(=O)N(Cc2cccc3ccccc23)CC(=O)N(CC(C)C)CCC(=O)N[C@@H](C)C1=O						
2	1	> 10	CCC(=O)CCCCC[C@@H]1NC(=O)[C@H](C)N(C)C(=O)CCN(CC(C)C)C(=O)CN(CCc2c[nH]c3ccccc23)C1=O	30	> 50	28	15	18	IC50 (Histone deacetylase 1): 0.54 µM; IC50 [1]: 0.65 µM
	18		CCC(=O)CCCCC[C@@H]1NC(=O)[C@H](C)N(C)C(=O)CCN(CC(C)C)C(=O)CN(Cc2cccc3ccccc23)C1=O						
	> 100		CCC(=O)CCCCC[C@@H]1NC(=O)[C@H](C)N(C)C(=O)CCN(CC(C)C)C(=O)CN(CCc2ccccc2)C1=O						
0.37	0.21	> 10	CCC(=O)CCCCC[C@@H]1NC(=O)[C@H](CCCCNC(C)=O)NC(=O)CCN(CC(C)C)C(=O)CN(CCc2c[nH]c3ccccc23)C1=O	38	> 50	50	1.5	10	IC50 (Histone deacetylase 1): 0.2 µM; IC50 [1]: 0.32 µM
	> 100		CCC(=O)CCCCC[C@@H]1NC(=O)[C@H](C)N(C)C(=O)CCN(CC(C)C)C(=O)CN(Cc2ccccc2)C1=O						
	> 10		CCC(=O)CCCCCN1CC(=O)N(CCc2c[nH]c3ccccc23)CC(=O)N(CC(C)C)CCC(=O)N(C)[C@@H](C)C1=O						
	> 10		CCC(=O)CCCCC[C@@H]1NC(=O)[C@H](C)N(C)C(=O)CCN(CC(C)C)C(=O)[C@H](Cc2c[nH]c3ccccc23)NC1=O						

Reference: ChEMBL document CHEMBL2169795, “Macrocyclic peptoid-Peptide hybrids as inhibitors of class I histone deacetylases” (ACS Med Chem Lett, 2012)
